The text below walks through data of US20060106028A1, “Polycyclic aromatics and derivatives thereof and processes for their preparation” (priority 2004, published 2006).

In brackets after ≈: the same amount, converted by molar mass.

Series [1] concerns Staphylococcus aureus (Smith strain, ATCC™ 13709). Briefly: In vivo antimicrobial efficacy in infected ICR mice. The settings on record: ip, ICR mice infected i.p., compound i.p. one hour post infection in 1% SDS, mortality recorded for 7 days, read-out: median effective dose (ED50). The method, then: In vivo efficacy studies were performed on ICR mice (supplied by Charles River Laboratories, Wilmington, Mass.) having a bodyweight of 20±2 g. Mice (38) were inoculated i.p. with an LD90-100 dose (1×10^6 CFU/mouse) of Staphylococcus aureus (Smith strain, ATCC™ 13709) suspended in 0.5 mL of BHI containing 5% mucin. Compound 1 at doses 0.1, 0.5, 1 and 5 mg/kg (formulated in 1% SDS for a total volume of 5 μL/g of weight) was administered i.p. one hour post infection (5 mice for each concentration). Another group of 5 mice was treated i.v. with a 10 mg/kg dose of Vancomycin. Finally, a group of 3 mice was administered vehicle only. Mortality was recorded for 7 days.

The test system of series [2] is Streptococcus pneumoniae PenR (LSPQ 3349). Description: Antibacterial activity, MIC (NCCLS M7-A5). In kind it is cell-based. The settings on record: MH medium +2% lysed horse blood.
For series [3], the system named is Enterococcus faecalis VRE-2 (ATCC™ 51299). Briefly: Antibacterial activity, MIC (NCCLS M7-A5). Type of series: cell-based. The note with it: BHI+ medium, 35° C., 16 to 20 hours.
Series [4] has as its system Escherichia coli (ATCC™ 25922). Description: Antibacterial activity (NCCLS M7-A5). Type of series: cell-based. The settings on record: MH medium.
For series [5], the system named is Staphylococcus aureus MRS3 (ATCC™ 700699). Description: Antibacterial activity, MIC (NCCLS M7-A5). In kind it is cell-based. The note with it: MH medium, 35° C., 16 to 20 hours.
Series [6] is described as follows: Acute toxicity in CD-1 nu/nu mice. In kind it is in vivo. The settings on record: CD-1 nu/nu, mouse, in vivo, 6% Tween/4.5% Glycocholate/5% EtOH formulation. The protocol: (§1) Toxicity and therapeutic efficacy of polycyclic aromatic compounds can be determined by standard pharmaceutical procedures in cell cultures or experimental animals. Therapeutic efficacy is determined in animal models as described above and in the examples herein. Toxicity studies are done to determine the lethal dose for 10% of tested animals (LD10). Animals are treated at the maximum tolerated dose (MTD): the highest dose not producing mortality or greater than 20% body weight loss. The effective dose (ED) is related to the MTD in a given tumor model to determine the therapeutic index of the compound.
(§2) In vivo toxicity: With CD1 mice, the maximum tolerated dose (MTD) for a single-dose via i.v. or i.p. routes in 1% SDS formulation was ≧5 mg/kg. The acute toxicity in CD-1 nu/nlu mice of Compound 1 was also determined in 6% Tween/4.5% Glycocholate/5% EtOH formulation.

In the next series the test system is CD-1 nu/nlu mice. Briefly: Acute toxicity in CD-1 nu/nu mice. Type of series: in vivo. The note with it: i.v.; 6% Tween/4.5% Glycocholate/5% EtOH formulation. The protocol:
as §1, §2

In series [7] the test system is MDA-MB-231 (mammary gland adenocarcinoma). Description: In vitro tumor growth inhibition (GI50, propidium iodide). The note with it: Homo sapiens, 96 hrs. Type of series: cell-based.
In series [8] the test system is Saccharomyces cerevisiae FHCRC-50014. Briefly: Antifungal activity, MIC (NCCLS M27-A). Type of series: cell-based. The note with it: FHCRC50014, after 24 hours, YPD medium. The method, then: (§3) Testing of antifungal activity was performed according to NCCLS method (NCCLS. Reference Method for Broth Dilution Antifungal Susceptibility Testing of Yeasts; Approved Standard. NCCLS document M27-A (ISBN 1-56238-328-0). NCCLS, 940 West Valley Road, Suite 1400, Wayne, Pa. 19087-1898 USA; www.nccls.org.). Compound 1 was prepared as 100× stock solutions in DMSO, with concentrations ranging from 3.2 mg/mL to 0.003 mg/mL (a two-fold dilution series over 11 points). An aliquot of each 100× stock solution was diluted 50-fold in test medium described below to give a set of eleven (11) 2× solutions. 50 μL of each of the eleven 2× solutions was aliquoted into the corresponding well of a 12-well row, with the final well reserved for medium alone control. Inoculum density for each indicator strain was adjusted to OD600=0.1 in 5 mL 0.85% saline, then further diluted 1/1000 in YPD medium. 50 μL of the final dilution (in test medium) of each indicator strain was added to each well of a 12-well row. This brings the final dilution of the test article or control compound in solution to 1×. The final inoculum was approximately 5×10^4 CFU/ml.
(§4) Bacterial strains Streptococcus pneumoniae LSPQ 3412 and LSPQ 3349 were obtained from the “Laboratoire de Sante Publique du Quebec”. Saccharomyces cerevisiae FHCRC-50014 and FHCRC-50514 were obtained from the “Fred Hutchison Cancer Research Center”.

The subject of series [9] is Saccharomyces cerevisiae FHCRC-50514. Description: Antifungal activity, MIC (NCCLS M27-A). Type of series: cell-based. The note with it: FHCRC50514, after 24 hours, YPD medium. The protocol:
as §3, §4

A further series relates to SF268 (CNS). Description: In vitro tumor growth inhibition (GI50, propidium iodide). The settings on record: Homo sapiens; SF-268; 96 hrs. In kind it is cell-based.
Series [10] relates to HT-29 (colorectal carcinoma). The series is described as above. The settings on record: Homo sapiens, 96 hrs. Type of series: cell-based.
Another series deals with Sheep red blood cells. Briefly: In vitro toxicity: hemolytic activity. The note with it: 2 hrs at 37° C.; 2 to 64 μg/mL; prepared in DMSO or in 6% Tween/4.5% Glycocholate/5% EtOH formulation. Type of series: cell-based. The protocol: In vitro toxicity: Sheep red blood cells were exposed to Compound 1 for 2 hrs at 37° C. at concentrations ranging from 2 to 64 μg/mL. Hemolytic activity was determined by monitoring the amount of hemoglobin released spectrophotometrically.

The test system of series [11] is Staphylococcus aureus (ATCC™ 6538P). Description: Antibacterial activity, MIC (NCCLS M7-A5). In kind it is cell-based. The note with it: MH medium, 35° C., 16 to 20 hours.

As to `CCC(C)c1cc2c(=O)c3ccc4c(OC)c5c(=O)c6c(O)ccc(O)c6c(=O)c5c(O)c4c3c(=O)c2c(=O)n1CC(=O)N1CC(C(=O)O)NC(=O)C1C` (stereo not drawn) [Compound 1], in series [1], the 50% effective dose (ED50) (usually the midpoint of the dose-response relation) is < 0.1 mg/kg. The MIC (as a rule, the smallest concentration in the dilution series that meets the test's criterion for growth inhibition) in series [2] is 4 to 16 mg/L (≈ 5.42 to 21.7 µM); in series [3] it was 0.125 mg/L (≈ 0.169 µM); in series [5], 0.016 mg/L (≈ 0.0217 µM); in series [8], 8 mg/L (≈ 10.8 µM); in series [9] it was 8 mg/L (≈ 10.8 µM); in series [11], 0.016 mg/L (≈ 0.0217 µM). Moreover, in series [4], the Antibacterial activity result was “inactive”. Besides, the values for the MTD in series [6] (ip) and in series [6] (iv) were ≥ 50 mg/kg and 25 mg/kg, respectively. The Injection site observation entry with CD-1 nu/nlu mice is on record as “necrosis at the injection site was observed”. In addition, the GI50 (commonly the concentration that inhibits growth by half) worked out at 14.6 µM in series [7], 3.36 µM in the series on SF268 (CNS) and 8.85 µM in [10]. The “Hemolytic activity (hemoglobin released)” value with Sheep red blood cells is given as “did not display hemolytic activity up to 64 μg/mL”.
